Test system: P. aeruginosa PA14
Assay: Potentiation of gentamycin on pre-formed biofilm
Type: cell-based, Pseudomonas aeruginosa
Conditions: 9 hr biofilm, M63 + arginine; BIF ~1 μM, Gm 0.1 mg/ml; 14 hours of incubation
Description: FIG. 10 is a bar graph showing the ability of purified BIF to potentiate the activity of gentamycin (Gm). A biofilm of P. aeruginosa PA14 was pre-formed by growing the bacteria for 9 hrs in minimal M63 medium supplemented with arginine (0.4%) in 96 well dishes (100 μl of medium per well). After 9 hrs, half of the media was removed and replaced with fresh medium containing Gm (0.1 mg/ml final concentration), BIF (˜1 μM final concentration), or both compounds. The biofilm was quantitated after an additional 14 hrs of incubation.
We predicted that addition of purified BIF might potentiate the effects of antimicrobial compounds. To test this hypothesis, we pre-formed a biofilm of P. aeruginosa by growing the bacteria for 9 hrs by growth in minimal M63 medium supplemented with arginine (0.4%) in 96 well dishes. The preformed biofilms were then treated with BIF alone or BIF plus gentamycin (Gm) at 0.1 mg/ml final concentration. At the concentrations tested, BIF (˜1 μM) and Gm (0.1 mg/ml) had no effect on pre-formed biofilms of P. aeruginosa when these compounds were used individually (FIG. 10).

gentamycin [Gm]
effect on pre-formed biofilms of P. aeruginosa: no effect
